Where two headings read alike, the source gives them in different places.
Legend:
Nav1.4 = Nav1.4 (Homo sapiens, UniProt P35499); assay: Sodium channel selectivity test, patch-clamp, Nav1.4; type: cell-based; settings: read-out: Nav1.4 Inhibition rate (%)
Source text: (§1) Test Example 3: Selectivity test of the compounds of the present disclosure on sodium channels • 1. Experimental objective: The effects of the compounds on the current of the voltage-gated sodium channel (NaV) subtypes 1.1-1.7 were detected by patch-clamp technique • 2. Experimental materials and instruments • 2.1 Cell lines: CHO/HEK293 cell lines stably expressing Nav1.1-1.7 sodium channels, constructed in-house by the laboratory of Beijing ICE Bioscience Co., Ltd., (Reference: Jarvis MF, Honore P, Shieh CC, Chapman M, Joshi S, Zhang XF, Kort M, Carroll W, Marron B, Atkinson R, Thomas J, Liu D, Krambis M, Liu Y, McGaraughty S, Chu K, Roeloffs R, Zhong C, Mikusa JP, Hernandez G, Gauvin D, Wade C, Zhu C, Pai M, Scanio M, Shi L, Drizin I, Gregg R, Matulenko M, Hakeem A, Gross M, Johnson M, Marsh K, Wagoner PK, Sullivan JP, Faltynek CR, Krafte DS. A-803467, a potent and selective Nav1.8 sodium channel blocker, attenuates neuropathic and inflammatory pain in the rat. Proc Natl Acad Sci U S A. 2007 May 15;104(20):8520-5. doi: 10.1073/pnas.0611364104. Epub 2007 May 2. PMID: 17483457; PMCID: PMC1895982.), gene information Nav1.1: NM_006920; Nav1.2: NM_001040142; Nav1.3: NM_006922; Nav1.4: NM_000334; Nav1.5: NM198056; Nav1.6: NM014191; Nav1.7: […]. • 2.2 Compounds: Dissolved in DMSO, with sample concentration prepared at 30 µM. • 3. Experimental methods • 3.1 Cell culture • (1) Maintenance medium: CHO cells were cultured in HAM'S/F-12 medium containing 10% fetal bovine serum, 100 µg/mL Zeocin, and 10 µg/mL Blasticidin, under conditions of 37°C incubation temperature and 5% carbon dioxide concentration. HEK-293 cells were cultured in DMEM medium containing 10% fetal bovine serum and 800 µg/mL G418; the culture temperature was 37°C, and the carbon dioxide concentration was 5%. • (2) Cell passage: The old medium was removed, and the cells were washed once with PBS, then 1 mL of 0.25%-Trypsin-EDTA solution was added and incubated at 37°C for approximately 1.5 min. When the cells were detached from the bottom of the dish, about 5 mL of preheated complete medium at 37°C was added. […]

Nav1.3 = Nav1.3 (Homo sapiens, UniProt Q9NY46); assay: Sodium channel selectivity test, patch-clamp, Nav1.3; type: cell-based; settings: read-out: Nav1.3 Inhibition rate (%)
Sequence of Nav1.3 (Q9NY46 1-2000 isoform Q9NY46-3): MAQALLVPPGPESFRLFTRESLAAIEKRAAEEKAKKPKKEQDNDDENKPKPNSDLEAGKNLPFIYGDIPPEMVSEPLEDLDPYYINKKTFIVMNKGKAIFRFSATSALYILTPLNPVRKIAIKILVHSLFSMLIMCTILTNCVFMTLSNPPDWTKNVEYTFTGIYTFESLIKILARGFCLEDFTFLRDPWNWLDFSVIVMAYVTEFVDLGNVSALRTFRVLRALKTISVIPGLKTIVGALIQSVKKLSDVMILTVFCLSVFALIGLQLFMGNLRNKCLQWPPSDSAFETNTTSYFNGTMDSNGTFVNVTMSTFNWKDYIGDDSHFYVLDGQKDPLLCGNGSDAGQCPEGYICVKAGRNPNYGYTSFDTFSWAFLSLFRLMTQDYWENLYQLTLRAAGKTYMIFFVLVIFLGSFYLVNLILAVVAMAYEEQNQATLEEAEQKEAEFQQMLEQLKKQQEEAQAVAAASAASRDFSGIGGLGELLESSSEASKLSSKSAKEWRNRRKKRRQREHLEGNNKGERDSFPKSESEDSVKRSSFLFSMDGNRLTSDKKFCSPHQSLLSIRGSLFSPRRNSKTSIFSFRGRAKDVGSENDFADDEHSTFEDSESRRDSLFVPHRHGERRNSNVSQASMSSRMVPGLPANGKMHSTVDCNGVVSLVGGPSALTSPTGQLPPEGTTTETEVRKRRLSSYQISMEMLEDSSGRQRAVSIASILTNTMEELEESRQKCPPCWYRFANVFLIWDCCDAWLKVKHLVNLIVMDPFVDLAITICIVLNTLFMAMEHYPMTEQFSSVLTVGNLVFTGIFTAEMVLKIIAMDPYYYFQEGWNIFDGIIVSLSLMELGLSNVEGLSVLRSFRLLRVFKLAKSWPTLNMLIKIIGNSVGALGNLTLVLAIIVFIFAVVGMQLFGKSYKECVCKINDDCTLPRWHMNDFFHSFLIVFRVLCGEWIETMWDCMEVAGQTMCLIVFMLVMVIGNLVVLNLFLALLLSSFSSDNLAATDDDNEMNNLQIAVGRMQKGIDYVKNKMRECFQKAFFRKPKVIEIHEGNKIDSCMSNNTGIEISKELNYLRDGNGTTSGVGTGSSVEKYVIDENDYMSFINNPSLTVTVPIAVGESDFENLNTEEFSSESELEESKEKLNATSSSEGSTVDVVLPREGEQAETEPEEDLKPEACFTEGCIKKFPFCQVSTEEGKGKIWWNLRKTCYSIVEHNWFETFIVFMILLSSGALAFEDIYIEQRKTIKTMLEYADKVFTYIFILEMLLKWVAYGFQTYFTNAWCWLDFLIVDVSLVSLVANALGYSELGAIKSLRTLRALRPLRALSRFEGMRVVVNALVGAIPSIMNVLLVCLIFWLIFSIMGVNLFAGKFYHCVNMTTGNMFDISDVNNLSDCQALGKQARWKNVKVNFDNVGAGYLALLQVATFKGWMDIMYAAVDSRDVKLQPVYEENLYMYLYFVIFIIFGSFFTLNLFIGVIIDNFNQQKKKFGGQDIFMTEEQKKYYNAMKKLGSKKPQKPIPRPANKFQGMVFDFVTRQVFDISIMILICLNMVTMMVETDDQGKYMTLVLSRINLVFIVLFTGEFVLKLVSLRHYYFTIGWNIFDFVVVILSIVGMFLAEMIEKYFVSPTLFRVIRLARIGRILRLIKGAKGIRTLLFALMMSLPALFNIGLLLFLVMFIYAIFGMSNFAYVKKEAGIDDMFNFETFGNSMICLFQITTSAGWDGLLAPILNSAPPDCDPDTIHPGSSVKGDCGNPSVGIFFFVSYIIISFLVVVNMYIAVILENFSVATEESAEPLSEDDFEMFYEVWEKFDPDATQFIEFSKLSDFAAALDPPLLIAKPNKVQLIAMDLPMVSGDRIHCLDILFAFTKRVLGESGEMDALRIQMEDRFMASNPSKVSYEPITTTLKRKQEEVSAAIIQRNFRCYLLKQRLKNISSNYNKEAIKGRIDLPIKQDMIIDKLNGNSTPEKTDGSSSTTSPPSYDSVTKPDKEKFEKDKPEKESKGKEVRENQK
Source text: as §1

Nav1.7 = Nav1.7 (Homo sapiens, UniProt Q15858); assay: Sodium channel selectivity test, patch-clamp, Nav1.7; type: cell-based; settings: read-out: Nav1.7 Inhibition rate (%)
Source text: as §1

Nav1.2 = Nav1.2 (Homo sapiens, UniProt Q99250); assay: Sodium channel selectivity test, patch-clamp, Nav1.2; type: cell-based; settings: read-out: Nav1.2 Inhibition rate (%)
Sequence of Nav1.2 (Q99250 whole entry): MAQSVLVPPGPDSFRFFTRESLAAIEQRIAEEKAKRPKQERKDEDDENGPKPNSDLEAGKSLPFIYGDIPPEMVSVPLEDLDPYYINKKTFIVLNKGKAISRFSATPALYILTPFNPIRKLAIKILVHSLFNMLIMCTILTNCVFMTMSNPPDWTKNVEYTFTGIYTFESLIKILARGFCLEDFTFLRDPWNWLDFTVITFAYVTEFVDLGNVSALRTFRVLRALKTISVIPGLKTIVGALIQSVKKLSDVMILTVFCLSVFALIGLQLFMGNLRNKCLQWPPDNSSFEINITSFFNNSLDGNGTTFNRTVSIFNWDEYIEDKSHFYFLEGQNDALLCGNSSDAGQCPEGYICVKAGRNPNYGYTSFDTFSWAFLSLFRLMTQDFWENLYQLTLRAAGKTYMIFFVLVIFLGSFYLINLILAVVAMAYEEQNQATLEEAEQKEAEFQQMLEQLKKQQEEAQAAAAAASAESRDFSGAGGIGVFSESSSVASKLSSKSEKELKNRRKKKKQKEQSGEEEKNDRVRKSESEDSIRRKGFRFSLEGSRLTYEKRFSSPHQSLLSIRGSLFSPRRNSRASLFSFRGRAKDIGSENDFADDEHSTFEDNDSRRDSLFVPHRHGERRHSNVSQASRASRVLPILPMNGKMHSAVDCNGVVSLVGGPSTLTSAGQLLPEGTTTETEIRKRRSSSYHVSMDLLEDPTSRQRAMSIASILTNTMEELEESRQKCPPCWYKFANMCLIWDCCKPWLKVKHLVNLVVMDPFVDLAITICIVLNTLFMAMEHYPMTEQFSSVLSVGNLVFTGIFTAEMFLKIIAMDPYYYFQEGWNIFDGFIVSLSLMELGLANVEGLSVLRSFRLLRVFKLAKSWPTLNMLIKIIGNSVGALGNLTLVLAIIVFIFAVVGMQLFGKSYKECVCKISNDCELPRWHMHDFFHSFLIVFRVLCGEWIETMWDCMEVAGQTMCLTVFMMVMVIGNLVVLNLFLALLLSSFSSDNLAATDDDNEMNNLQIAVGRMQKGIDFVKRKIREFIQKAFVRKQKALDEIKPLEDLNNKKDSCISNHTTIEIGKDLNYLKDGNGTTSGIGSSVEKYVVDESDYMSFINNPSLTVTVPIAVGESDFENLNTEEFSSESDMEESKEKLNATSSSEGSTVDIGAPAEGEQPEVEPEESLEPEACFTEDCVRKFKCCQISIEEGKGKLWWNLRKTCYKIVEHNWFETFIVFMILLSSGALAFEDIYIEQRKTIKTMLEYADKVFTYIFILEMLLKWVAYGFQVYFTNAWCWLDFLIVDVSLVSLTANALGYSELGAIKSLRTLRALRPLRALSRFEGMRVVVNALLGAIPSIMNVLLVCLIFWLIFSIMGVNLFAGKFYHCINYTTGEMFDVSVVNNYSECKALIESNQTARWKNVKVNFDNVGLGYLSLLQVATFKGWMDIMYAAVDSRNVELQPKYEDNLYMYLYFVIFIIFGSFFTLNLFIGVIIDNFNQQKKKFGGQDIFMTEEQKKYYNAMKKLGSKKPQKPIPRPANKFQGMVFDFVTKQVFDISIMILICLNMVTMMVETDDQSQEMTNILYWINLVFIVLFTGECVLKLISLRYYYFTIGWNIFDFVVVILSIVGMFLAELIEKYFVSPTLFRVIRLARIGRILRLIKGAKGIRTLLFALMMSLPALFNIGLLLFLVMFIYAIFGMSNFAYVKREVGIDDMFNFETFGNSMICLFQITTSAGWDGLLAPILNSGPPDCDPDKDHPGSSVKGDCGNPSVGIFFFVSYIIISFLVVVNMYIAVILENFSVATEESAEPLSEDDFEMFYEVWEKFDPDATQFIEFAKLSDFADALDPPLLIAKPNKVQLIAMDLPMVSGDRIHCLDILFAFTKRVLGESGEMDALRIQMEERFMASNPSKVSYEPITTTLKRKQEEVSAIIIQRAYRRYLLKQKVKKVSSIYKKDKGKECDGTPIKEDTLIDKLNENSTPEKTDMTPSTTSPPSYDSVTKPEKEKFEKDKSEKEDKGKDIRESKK
Source text: as §1

[1] = Pharmacokinetic determination in SD rats; type: in vivo; settings: rat, po, gavage 10 mg/kg, plasma; for half-life: read-out: Half-life t1/2 (converted); for Cmax: read-out: Peak concentration Cmax; for Tmax: read-out: Time to peak Tmax
Description: SD rats were used as test animals to study the pharmacokinetic behavior in rat plasma after oral administration of the compound example of the present disclosure at a dose of 10 mg/kg.
Male SPF-grade SD rats, with body weight (200 ± 20) g.
Drug preparation: The drug concentration was prepared as 1 mg/mL, and the preparation solvent was Tween80 + 0.5% MC (v/v 1:99).
Male SPF-grade SD rats were administered by gavage after adaptive feeding for 3-4 days, with an administration dose of 10 mg/kg and an administration volume of 10 mL/kg.
Blood samples were collected from rats before administration (0 h) and after administration at 0.5 h, 1 h, 1.5 h, 2 h, 3 h, 4 h, 6 h, 8 h, 10 h, 12 h, and 24 h. Blood, approximately 0.2 mL, was collected by retro-orbital puncture and placed into EDTA-K2 anticoagulant tubes with labels. After blood collection, the tubes were gently and completely inverted three times to mix with the anticoagulant. The samples were then immediately placed in an ice-water bath and centrifuged at 4500 rpm for 10 min at 4°C. After centrifugation, the plasma was promptly aliquoted into EP tubes with corresponding labels and stored in a -80°C freezer.
After administration, 20 µL of rat plasma was taken and placed into a 96-deep-well plate pre-filled with 20 µL of internal standard working solution. Methanol (400 µL) as the precipitating agent was added, vortexed for 10 min, and centrifuged at 4000 rpm for 15 min. A supernatant of 200 µL was transferred into another 96-deep-well plate pre-filled with 200 µL of ultrapure water, vortexed for 5 min, and centrifuged at 4000 rpm for 3 min. A supernatant of 5 µL was taken for LC-MS/MS analysis of plasma drug concentration.
The main pharmacokinetic parameters were calculated by WinNonlin 7.0, and the pharmacokinetic experimental results of rats are shown in Table 4 below. Table 4: Pharmacokinetic experimental results of rats

[2] = test system: KM mouse acetic acid-induced writhing model; assay: Analgesic efficacy in mouse acetic acid-induced writhing model; type: in vivo, KM mice; settings: single dose, writhes within 20 min, p < 0.05 vs solvent control
Description: 1. Objective: The analgesic efficacy of the example was evaluated in a KM mouse acetic acid-induced writhing model. 2. Experimental methods: 2.1 Experimental drugs: The compounds in examples of the present disclosure and reference compound were self-prepared. […] It was prepared using a solvent (Tween 80 + 0.5% MC (v:v = 1:99 pH = 3)). 2.2 Experimental animals: Male KM mice were purchased from Hubei Provincial Center for Disease Control and Prevention (Hubei Provincial Academy of Preventive Medicine), weighing 20 to 25 g at the time of purchase. 2.3 Experimental grouping: Table 6: Efficacy test grouping of compounds in the acetic acid-induced writhing model
2.5 Data collection and analysis • Data were collected using Excel software. • Data were analyzed using Prism (Graph pad software, Inc.) software. 3.

[3] = 30 mg/kg intragastric, second group set (solvent control 20.11 ± 3.55)
[4] = 100 mg/kg intragastric, second group set (solvent control 20.11 ± 3.55)

| AUC(0-t) ([1]; male, read-out: Area under the curve AUC0-t) [ng·h/mL] | half-life ([1]; male) [min] | Cmax ([1]; male) [ng/mL] | Tmax ([1]; male) [min] | SMILES | inhibition at 30 µM (Nav1.4) [%] | inhibition at 30 µM (Nav1.3) [%] | inhibition at 30 µM (Nav1.7) [%] | inhibition at 30 µM (Nav1.2) [%] | Number of writhes [2, 3] | Number of writhes [2, 4] | AUC(0-t) ([1]; read-out: Area under the curve AUC0-t) [ng·h/mL] | half-life [1] [min] | Cmax [1] [ng/mL] | Tmax [1] [min] | AUC(0-t) at 24 h ([1]; in vivo, read-out: Area under the curve AUC0-t) [ng·h/mL] | half-life ([1]; in vivo) [min] | Cmax ([1]; in vivo) [ng/mL] | Tmax ([1]; in vivo) [min] | Number of writhes ([2]; 30 mg/kg intragastric, first group set (solvent control 16.11 ± 5.84)) |
| --- | --- | --- | --- | --- | --- | --- | --- | --- | --- | --- | --- | --- | --- | --- | --- | --- | --- | --- | --- |
| 608 ± 362 | 79.2 ± 10.2 | 216 ± 124 | 37.8 ± 15 | COc1c([C@H]2[C@H](C(=O)Nc3ccnc(C(N)=O)c3)O[C@@](C)(C(F)(F)F)[C@H]2C)ccc(F)c1F [Reference compound, reference compound] | 83.6 | 63.4 | 11.1 | 53.6 | 11.86 ± 3.53 | 10.13 ± 3.64 | – | – | – | – | – | – | – | – | – |
| – | – | – | – | C[C@H]1[C@@H](c2ccc(F)c(F)c2OC2COC2)[C@H](C(=O)Nc2ccc(F)c(C(=N)NO)c2)O[C@@]1(C)C(F)(F)F [Example 11] | 8.45 | 21.7 | 14.8 | 16 | 11.56 ± 5.15 | 8.38 ± 6.12 | 2080 ± 201 | 51 ± 4.2 | 1040 ± 260 | 45 ± 30 | – | – | – | – | – |
| – | – | – | – | COCCOc1c([C@H]2[C@H](C(=O)Nc3ccc(F)c(C(=N)NO)c3)O[C@@](C)(C(F)(F)F)[C@H]2C)ccc(F)c1F [Example 10] | 75.4 | 28.6 | 20.8 | 32.8 | – | – | – | – | – | – | 4650 ± 1600 | 96 ± 16.2 | 1240 ± 326 | 52.8 ± 15 | 12.10 ± 6.10 |

Source: patent EP4775574A1, “FURAN RING-CONTAINING COMPOUND, PHARMACEUTICAL COMPOSITION THEREOF, AND USE THEREOF” (Wuhan Xirui Pharmaceutical Technology Co., Ltd, priority 2023, dated 2025)
